# Test results reported in patent US20080288176A1 (priority 2005, published 2008).
# What was measured:
# [1] = Hydrolysis in rat intestinal microsomes; type: in vitro ADME
# Description: (§1) The physiologically based pharmacokinetic/pharmacodynamic model of the present invention contains a series of compartments that describe the time course of a nonsteroidal anti-inflammatory prodrug, its active metabolites and nitric oxide release in intestine, liver, kidneys, blood/plasma and heart after prodrug administration. The time course of the prodrug, its active metabolites and nitric oxide release can be simulated using a series of in vitro and in silico inputs. The stability of each component in the gastrointestinal lumen is estimated using data collected from artificial gastric and intestinal juice. Intestinal metabolism is estimated using intestinal microsomes and absorption rate is estimated using permeability data collected from a cell monolayer such as Caco-2. Hepatic elimination is estimated using liver microsomes and stability in plasma is calculated using degradation of each component in the media. Plasma protein binding can either be measured using a standardized in vitro method or it can be estimated using an in silico method. The distribution of each component in various parts of the body is estimated using an in silico method. The rate of nitric oxide release is estimated using an in vitro endothelial cell model. The time course of prodrug, its active metabolites and nitric oxide can be simulated in human and animal using this physiologically based pharmacokinetic/pharmacodynamic model provided that the corresponding in vitro and in silico data are used as inputs.
# (§2) Representative in vitro tests or in silico estimates include: (a) pKa estimation or measurement; (b) Log P measurement or in silico estimation; (c) Solubility in various physiological fluids; (d) Permeability. Caco-2 and/or NOVOKIN's proprietary animal and human cell lines can be used to obtain this parameter; (e) Metabolic rate in the intestine and liver. Human or animal intestinal microsomes, S9 fraction, and cytosol can be used for this purpose. Human or animal hepatocytes, liver microsomes, S9 fraction, and cytosol can also be used; (f) Hydrolysis in human or animal plasma; (g) Serum or plasma protein binding. It can be measured in vitro or estimated in silico; (h) The rate of NO release; (i) Existing pharmacokinetic and pharmacodynamic data of NSAID or a biocompatible agent; (j) Existing NO release rate of known diazeniumdiolate if applicable; (k) Stability in gastric and intestinal environment; and (l) In silico volume of distribution estimation.
# (§3) Whenever in vitro estimate is attainable, the in vitro results will be used, for example, plasma protein binding. Methods reported by Bowalgaha & Miners (2001), Martignoni et al. (2006), Tong et al. (2001) and Thulesen et al. (1999) were used for in vitro and in vivo scale-up for clearance in the intestine, absorption rate constant and hepatic clearance. The simulation begins with no material in all compartments except for the initial bolus in one compartment (typically the stomach compartment). The simulation then estimates the changing distribution of the material with time.
# [2] = Hydrolysis in human intestinal microsomes; type: in vitro ADME
# Description: as §1
# The selection of in vitro tests is designed to provide parameters for the above mentioned model. The use of an inappropriate test would result in wrong predictions. For example, Knaus et al. (2005) used guinea pig serum and porcine esterases to hydrolyze their O^2-substituted diazeniumdiolate derivatives of ASPIRIN, as disclosed in U.S. Ser. No. 60/681,842. These tests provided very little information in terms of in vivo human NO-NSAID metabolism rate and the extent to which metabolic conversion to NO donor and NSAID occurred. […] The half-life values were less than one minute. Based on these observations, it has become apparent that prior to entering the systemic circulation, it is likely that the NO-NSAID would have been hydrolyzed in the enterocytes and little or no NO-NSAID would have been detected in the blood stream. Furthermore, the release of NO will commence immediately once the NO donor is detached from the NSAID.
# as §2, §3
# [3] = Hydrolysis in rat liver microsomes; type: in vitro ADME
# Description: as §1, §2, §3
# [4] = Hydrolysis in human liver microsomes; type: in vitro ADME
# Description: as §1, with “The” for “The physiologically based pharmacokinetic/pharmacodynamic model of the present invention contains a series of compartments that describe the time course of a nonsteroidal anti-inflammatory prodrug, its active metabolites and nitric oxide release in intestine, liver, kidneys, blood/plasma and heart after prodrug administration. The”
# The selection of in vitro tests is designed to provide parameters for the above mentioned model. The use of an inappropriate test would result in wrong predictions.
# as §2
# The simulation begins with no material in all compartments except for the initial bolus in one compartment (typically the stomach compartment). The simulation then estimates the changing distribution of the material with time.
# [5] = Stability in gastric environment (gastric decay rate); type: in vitro ADME
# Description: as §1, §2
# [6] = Stability in intestinal lumen (decay rate); type: in vitro ADME
# Description: as §1, §2
# Hydrolysis in rat plasma = type: in vitro ADME
# Description: as §1, §2
# [7] = Hydrolysis in various enzymatic preparations (rat and human intestinal and liver microsomes)
# [8] = Chemical stability (loss of diazeniumdiolate) in phosphate buffer; type: physicochemical
# Protocol: They varied only in the nitrogen substituent of the amino acid, i.e. free amine (1), acetyl (2) and pivaloyl (3) groups. Their chemical stability was evaluated in phosphate buffer at different pH's over a 30 minute period (Table 11).
# [9] = Enzymatic hydrolysis in liver microsomal preparations (LC-MS); type: in vitro ADME; conditions: for Time to complete hydrolysis (cleavage of the diazeniumdiolate): liver microsomal preparations
# Protocol: The sensitivity of the prodrug 3 towards enzymatic hydrolysis was evaluated by LC-MS. Liver and intestinal microsomal preparations were used. […] However, these rates were slower than the enzymatic hydrolysis rates determined for the conversion of 1→4 and 2→5 (complete hydrolysis observed in 10 and 30 minutes respectively in liver microsomal preparations).
# male Wistar rats [10] = experiment: Gastric ulcer index after oral dosing; type: in vivo, rat; conditions: for Ulcer Indices, Mean: oral gavage, naproxen 250 mg/kg or molar equivalent (ROF 250 mg/kg), 6 h after dosing, mean aggregate gastric ulcer length; for Ulcerogenicity (in words): oral, 6 h
# Protocol: (§4) Table 1 is a summary of the protocol for a study which was conducted in male Wistar rats weighing 275-300 grams. The animals were allowed to acclimatize for at least five days prior to the commencement of the study. The study protocol was approved by the local animal ethics committee.
# (§5) The animals were fasted overnight prior to test substance administration. The test substance was administered orally by gavage on the morning of the study day. All test animals had blood collected during the test period in both EDTA (ethylenediaminetetraacetic acid) tubes and SST (Serum Separator Tubes) at 1, 3 and 6 hours after dosing. Blood was collected into EDTA tubes only at 1 and 3 hours by tail tip amputation. Volume of blood collected was between 0.5 and 1 mL at each of these collections. The final collection was by puncture of the abdominal vena cava under isoflurane general anesthesia. Final blood collection was targeted as follows: 1st EDTA #1—1.5 mL; 2nd SST—1.5 mL; 3rd EDTA #2—as much as possible.
# Each animal from all groups underwent a full necropsy under the supervision of a board certified veterinary pathologist. The stomach of each rat was cut along the greater curvature, contents removed into a polypropylene (Falcon) tube, the mucosa rinsed with saline and any obvious ulcers or erosions were measured along the longest axis. This measurement was recorded for each ulcer or erosion observed in each stomach. The falcon tubes and their contents were frozen at −80° C. and shipped to Novokin on dry ice for analysis.
# The aggregate length of all gastric ulcers found in a given animal was calculated. The mean aggregate ulcer length across animals in a group was calculated. This mean value was reported as the ulcer index for that group.
# The ulcer index of each modified drug was compared with the ulcer index of its associated parent drug and the controls using analysis of variance and Duncan's multiple range test for pairwise comparisons. Statistical analysis was done using SAS® (SAS Institute Inc., Cary, N.C.).
# [11] = Serum nitrate concentration (NO release) after oral dosing; type: in vivo, rat; conditions: male Wistar rats, oral gavage, at 6 hours
# Protocol: as §4, §5
# EDTA samples were centrifuged, and the plasma portion was collected and frozen at −80° C. SST samples were incubated at 37° C. for approximately 45 minutes, centrifuged, and the serum was collected and frozen at −80° C. until analysis.
# [12] = tested on: cardiac tissue prostacyclin (PGI2) to thromboxane A2 (TXB2) ratio; experiment: Cardiac tissue prostacyclin to thromboxane ratio; type: in vivo, rat; conditions: male Wistar rats; for PGI2/TXA2 ratio comparison (in words): cardiac tissue; for Cardiac Tissue PGI2/TXB2, Mean: oral gavage, heart removed 6 hours after dosing
# Description: (§6) Myocardial infarction and ischemic events in high risk patients led one of the most popular COX-2 inhibitors to its demise (Bresalier et al., 2005). Non-selective NSAIDS may also cause similar problems due to their ability to inhibit COX-2. […] Adenosine diphosphate (ADP) generation is an indicator of myocardial infarction which has no connection with the arachidonic acid cascade (Borna et al., 2005). […] Long term NSAID use has been linked to kidney damage and hypertension (Zafirovska et al., 1993). […] This was associated with an increase in the urine the ratio of alanine-amino-peptidase (AAP) and creatinine.
# as §4
# All rats were euthanized by removal of the heart 6 hours after initial dosing, following final blood collections. Immediately after terminal blood collections were complete, the thorax was opened and the heart removed. The heart was cut in half longitudinally. Half of the heart was placed in formalin for histological examination. The other half was quickly rinsed in saline and then freeze-clamped (crushed between the jaws of a pair of modified tongs, cooled by liquid nitrogen). An entire kidney was freeze-clamped. The other kidney was left in situ for examination by the pathologist. Freeze-clamped tissues were wrapped in labeled aluminum foil and stored in liquid nitrogen until they could be transferred to a −80° C. freezer. Freeze-clamped tissues were shipped on dry ice to NOVOKIN for analysis.
# male Wistar rats [13] = experiment: Urine alanine aminopeptidase to creatinine ratio (proximal tubular kidney damage); type: in vivo, rat; conditions: for AAP/Cr (urine alanine aminopeptidase to creatinine), Mean: oral gavage, urine collected for 6 hours
# Description: as §6, §4
# (§7) All test animals, housed in metabolic cages, had urine collected over wet ice for 6 hours after dosing. Aliquots of the urine from each animal were collected to determine creatinine concentration. The remainder of the urine was centrifuged at 1000 g for 10 minutes. The supernatant was collected and mixed with analytical grade ethylene glycol at a rate of 0.4 mL ethylene glycol per 1 mL urine supernatant. The ethylene glycol/urine mixture was stored at −80° C. until analysis.
# male Wistar rats [14] = experiment: Urine N-acetylglucosaminidase to creatinine ratio (distal tubule toxicity); type: in vivo, rat; conditions: oral gavage, urine collected for 6 hours
# Protocol: as §4, §7
smiles,measurement,setting,value
COc1ccc2cc(C(C)C(=O)OCOC(=O)CCC(NC(=O)C(C)(C)C)C(=O)OCON=[N+]([O-])N(C)C)ccc2c1 (stereo not shown) [CMD 113],intestinal molar percent conversion to Naproxen,[1],62%
same,intestinal microsomal activity,[1]; model input,2 mL/min/organ
same,intestinal molar percent conversion to Naproxen,[2],75%
same,intestinal microsomal activity,[2]; model input,4813 mL/min/organ
same,liver molar percent conversion to Naproxen,[3],90%
same,liver microsomal activity,[3]; model input,6545 mL/min/organ
same,liver molar percent conversion to Naproxen,[4],72%
same,liver microsomal activity,[4]; model input,434763 mL/min/organ
same,gastric decay rate constant,[5]; Human,0 /mint
same,gastric decay rate constant,[5]; Rat,0 /mint
same,intestinal lumen decay rate constant,[6]; Human,0.2 min⁻¹
same,intestinal lumen decay rate constant,[6]; Rat,0.2 min⁻¹
same,Hydrolysis of the NO-AA in rat plasma (in words),Hydrolysis in rat plasma; NO-AA formed from the prodrug,relatively fast rate
same,plasma decay rate constant,Hydrolysis in rat plasma; Rat,1.2 min⁻¹
same,NO-AA half-life in plasma,"Hydrolysis in rat plasma; Rat, NO-AA formed from the prodrug",9.2 min
same,Stability of the NO-AA formed (in words),[7]; intestinal and liver microsomes of human and rats,relatively stable
same,Initial loss of the prodrug candidate (in words),[7]; various enzymatic preparations,rapid initial loss
COc1ccc2cc(C(C)C(=O)OC3CNC(C(=O)OCON=[N+]([O-])N(C)C)C3)ccc2c1 (stereo not shown) [Compound 1],Chemical stability (in words),"[8]; pH range 2.5-7.0, 30 minute period",underwent rapid degradation
same,Time to complete hydrolysis (cleavage of the diazeniumdiolate),[9],10 min
COc1ccc2cc(C(C)C(=O)OC3CC(C(=O)OCON=[N+]([O-])N(C)C)N(C(C)=O)C3)ccc2c1 (stereo not shown) [Compound 2],"Stability (loss of diazeniumdiolate), pH 2.5","[8]; 30 min, pH 2.5",✓
same,"Stability (loss of diazeniumdiolate), pH 5.0","[8]; 30 min, pH 5.0",✓
same,Chemical stability (in words),"[8]; pH 2.5-5.0, 30 minute period",stable
same,Chemical stability (in words),"[8]; pH 7.0, 30 minute period",much slower rate of decomposition
same,Time to complete hydrolysis (cleavage of the diazeniumdiolate),[9],30 min
COc1ccc2cc(C(C)C(=O)OCOC(=O)CCC(NC(C)=O)C(=O)OCOC(=O)C(C)c3ccc4cc(OC)ccc4c3)ccc2c1 (stereo not shown) [Compound 9],Time to complete hydrolysis (initial cleavage of both esters),[9]; liver microsomes,30 min
"COc1ccc2cc(C(C)C(=O)OCON=[N+]([O-])N(C)C)ccc2c1 (stereo not shown) [DMA-NO-NAP, dimethylamino-diazeniumdiolate-naproxen]","Ulcer Indices, Mean",male Wistar rats [10],1.695
same,Ulcerogenicity (in words),male Wistar rats [10],somewhat less ulcerogenic
same,"Serum Nitrate Concentrations, Mean",[11],768.000
same,PGI2/TXA2 ratio comparison (in words),[12],achieving statistical significance (p<0.05)
same,"Cardiac Tissue PGI2/TXB2, Mean",[12],5.157
same,"AAP/Cr (urine alanine aminopeptidase to creatinine), Mean",male Wistar rats [13],132.412
same,"Urine NAG/Cr values, Mean",male Wistar rats [14],20.403
"CS(=O)(=O)c1ccc(C2=C(c3ccccc3)C(=O)OC2)cc1 [ROF, Rofecoxib]","Ulcer Indices, Mean",male Wistar rats [10],0.000
same,Ulcerogenicity (in words),male Wistar rats [10],not significantly different from vehicle
same,"Serum Nitrate Concentrations, Mean",[11],55.818
same,PGI2/TXA2 ratio comparison (in words),[12],lower ratios than vehicle
same,"Cardiac Tissue PGI2/TXB2, Mean",[12],2.765
same,Urine AAP/creatinine ratio change (in words),male Wistar rats [13],did cause an increase
same,"AAP/Cr (urine alanine aminopeptidase to creatinine), Mean",male Wistar rats [13],538.367
same,"Urine NAG/Cr values, Mean",male Wistar rats [14],24.176
